Data reported in patent publication US10093660B2, “Sulfoximine substituted quinazolines for pharmaceutical compositions” (EVOTEC INTERNATIONAL GMBH, priority 2013, dated 2018).

Assays:
[1] = tested on: MNK2 (MNK2a or MNK2b) or MNK1; settings: cell culture cells transfected with MNK2 (MNK2a or MNK2b) or MNK1; cited from earlier work
MNK2a = MNK2a (Homo sapiens (Human), UniProt Q9HBH9); assay: MNK2a in vitro kinase assay (Assay 2), ADP-Glo; assay type: biochemical; settings: assay 2; read-out: MNK2 IC50
Text: B. MNK2a In Vitro Kinase Assay (Assay 2)

MNK1a = MNK1a (Homo sapiens (Human), UniProt Q9BUB5); assay: MNK1 in vitro kinase assay (Assay 3), Z'-LYTE; assay type: biochemical; settings: for inhibition at 1 µM: compound concentration of 1 μM, read-out: MNK1 % INH
MNK1a, sequence (Q9BUB5 other isoform, or with tags, fused parts or gaps): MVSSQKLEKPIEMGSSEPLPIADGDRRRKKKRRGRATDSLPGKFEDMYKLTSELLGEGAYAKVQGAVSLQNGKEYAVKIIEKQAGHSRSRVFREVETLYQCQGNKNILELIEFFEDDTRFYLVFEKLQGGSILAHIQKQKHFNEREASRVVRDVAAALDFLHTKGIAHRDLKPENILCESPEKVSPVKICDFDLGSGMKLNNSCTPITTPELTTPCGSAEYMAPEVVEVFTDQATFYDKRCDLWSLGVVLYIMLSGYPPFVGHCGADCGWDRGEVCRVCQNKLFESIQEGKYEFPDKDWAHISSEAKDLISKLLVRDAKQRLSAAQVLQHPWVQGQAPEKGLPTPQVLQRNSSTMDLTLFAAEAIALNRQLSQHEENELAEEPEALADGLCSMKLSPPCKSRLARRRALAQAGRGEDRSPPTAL

MNK2a, sequence (Q9HBH9 whole entry): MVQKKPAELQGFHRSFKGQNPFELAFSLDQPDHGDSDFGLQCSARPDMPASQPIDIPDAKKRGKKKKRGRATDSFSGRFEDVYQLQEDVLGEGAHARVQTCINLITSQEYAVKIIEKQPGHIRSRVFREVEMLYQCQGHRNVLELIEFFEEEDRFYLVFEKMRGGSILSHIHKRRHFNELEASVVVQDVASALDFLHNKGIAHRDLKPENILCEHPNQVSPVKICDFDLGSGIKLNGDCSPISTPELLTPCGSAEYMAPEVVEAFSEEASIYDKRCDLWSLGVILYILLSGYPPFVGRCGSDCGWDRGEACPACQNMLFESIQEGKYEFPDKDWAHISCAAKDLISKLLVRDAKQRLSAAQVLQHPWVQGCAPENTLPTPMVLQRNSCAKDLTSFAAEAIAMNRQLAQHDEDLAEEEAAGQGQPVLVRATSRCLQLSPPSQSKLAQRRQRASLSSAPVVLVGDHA

IC50 (MNK2a) [nM]	inhibition at 1 µM (MNK1a) [%]	IC50 (MNK1a) [nM]	Compound	reduction of phosphorylated eIF4E [1]
			Nc1ncnc2n[nH]c(Nc3ccc(F)cc3)c12 [CGP57380]	strong reduction of phosphorylated eIF4E
29	93		Cc1cc(N=S2(=O)CCCC2)cc2ncnc(Nc3cccnc3O[C@@H]3CNC[C@H]3O)c12 [Example 3.1]	
47	66		Cc1cc(N=S(C)(C)=O)cc2ncnc(Nc3cccnc3O[C@@H]3CNC[C@H]3O)c12 [Example 3.2]	
26	88		Cc1cc(N=S2(=O)CCCC2)cc2ncnc(Nc3cccnc3O[C@H]3CNC[C@@H]3O)c12 [Example 3.3]	
21	82		Cc1cc(N=S(C)(C)=O)cc2ncnc(Nc3ccc(F)cc3O[C@@H]3CNC[C@H]3O)c12 [Example 3.4]	
6		97	Cc1cc(N=S2(=O)CCCC2)cc2ncnc(Nc3ccc(F)cc3O[C@@H]3CNC[C@H]3O)c12 [Example 3.5]	
38	84		Cc1cc(N=S(C)(C)=O)cc2ncnc(Nc3ccc(F)cc3O[C@H]3CNC[C@@H]3O)c12 [Example 3.7]	
45	64		CO[C@@H]1CNC[C@H]1Oc1cc(F)ccc1Nc1ncnc2cc(N=S(C)(C)=O)cc(C)c12 [Example 4.1]	
8	87		CO[C@@H]1CNC[C@H]1Oc1cc(F)ccc1Nc1ncnc2cc(N=S3(=O)CCCC3)cc(C)c12 [Example 4.2]	
40	54		CCN1C[C@@H](OC)[C@H](Oc2cc(F)ccc2Nc2ncnc3cc(N=S4(=O)CCCC4)cc(C)c23)C1 [Example 4.3]	
11	93		CO[C@@H]1CNC[C@H]1Oc1ncccc1Nc1ncnc2cc(N=S3(=O)CCCC3)cc(C)c12 [Example 4.4]	
33	63		CO[C@@H]1CNC[C@H]1Oc1ncccc1Nc1ncnc2cc(N=S(C)(C)=O)cc(C)c12 [Example 4.5]	
16		373	CO[C@@H]1CN(CC(F)F)C[C@H]1Oc1cc(F)ccc1Nc1ncnc2cc(N=S3(=O)CCCC3)cc(C)c12 [Example 5.1]	
72	56		CO[C@@H]1CN(CC(F)F)C[C@H]1Oc1ncccc1Nc1ncnc2cc(N=S(C)(C)=O)cc(C)c12 [Example 5.2]	
109	31		CO[C@@H]1CN(CCF)C[C@H]1Oc1ncccc1Nc1ncnc2cc(N=S(C)(C)=O)cc(C)c12 [Example 5.3]	
44	35		CO[C@@H]1CN(CC(F)F)C[C@H]1Oc1cc(F)ccc1Nc1ncnc2cc(N=S(C)(C)=O)cc(C)c12 [Example 5.4]	
13	85		CO[C@@H]1CN(CC(F)F)C[C@H]1Oc1ncccc1Nc1ncnc2cc(N=S3(=O)CCCC3)cc(C)c12 [Example 5.5]	
389	10		CO[C@@H]1CN(C(C)=O)C[C@H]1Oc1cc(F)ccc1Nc1ncnc2cc(N=S(C)(C)=O)cc(C)c12 [Example 6.1]	
185	31		CO[C@@H]1CN(C(C)=O)C[C@H]1Oc1cc(F)ccc1Nc1ncnc2cc(N=S3(=O)CCCC3)cc(C)c12 [Example 6.2]	
584	9		CO[C@@H]1CN(C(C)=O)C[C@H]1Oc1ncccc1Nc1ncnc2cc(N=S(C)(C)=O)cc(C)c12 [Example 6.3]	
20	62		CO[C@@H]1CN(S(C)(=O)=O)C[C@H]1Oc1cc(F)ccc1Nc1ncnc2cc(N=S3(=O)CCCC3)cc(C)c12 [Example 6.4]	
28	60		CO[C@@H]1CN(S(C)(=O)=O)C[C@H]1Oc1ncccc1Nc1ncnc2cc(N=S3(=O)CCCC3)cc(C)c12 [Example 6.5]	

IC50 (MNK2a) [nM]	inhibition at 1 µM (MNK1a) [%]	IC50 (MNK1a) [nM]	Compound	reduction of phosphorylated eIF4E [1]
80		1400	CO[C@@H]1CN(S(C)(=O)=O)C[C@H]1Oc1ncccc1Nc1ncnc2cc(N=S(C)(C)=O)cc(C)c12 [Example 6.6]	
62	35		CO[C@@H]1CN(S(C)(=O)=O)C[C@H]1Oc1cc(F)ccc1Nc1ncnc2cc(N=S(C)(C)=O)cc(C)c12 [Example 6.7]	
128	41		CO[C@@H]1CN(C(C)=O)C[C@H]1Oc1ncccc1Nc1ncnc2cc(N=S3(=O)CCCC3)cc(C)c12 [Example 6.8]	
378	38		CC(=O)O[C@H]1CN(C(C)=O)C[C@@H]1Oc1ncccc1Nc1ncnc2cc(N=S3(=O)CCCC3)cc(C)c12 [Example 6.10]	
3	97		COc1cc(N=S2(=O)CCCC2)cc2ncnc(Nc3ccc(Cl)nc3O[C@H]3COC[C@@H]3O)c12 [Example 8.1]	
3	100		COc1cc(N=S(C)(C)=O)cc2ncnc(Nc3ccc(Cl)nc3O[C@H]3COC[C@@H]3O)c12 [Example 8.2]	
6	97		COc1cc(N=S2(=O)CCCC2)cc2ncnc(Nc3cccnc3O[C@H]3COC[C@@H]3O)c12 [Example 8.3]	
7	102		COc1cc(N=S(C)(C)=O)cc2ncnc(Nc3ccc(F)cc3O[C@H]3COC[C@@H]3O)c12 [Example 9.4]	
8	94		CCOc1cc(N=S(C)(C)=O)cc2ncnc(Nc3ccc(F)cc3O[C@H]3COC[C@@H]3O)c12 [Example 9.6]	
39	75		CS(C)(=O)=Nc1cc(OCCF)c2c(Nc3ccc(F)cc3O[C@H]3COC[C@@H]3O)ncnc2c1 [Example 9.8]	
7	94		COc1cc(N=S(C)(=O)C(C)C)cc2ncnc(Nc3ccc(F)cc3O[C@H]3COC[C@@H]3O)c12 (stereo partly shown) [Example 9.9]	
3	104	28	COc1cc(N=S2(=O)CCC2)cc2ncnc(Nc3ccc(F)cc3O[C@H]3COC[C@@H]3O)c12 [Example 9.10]	
13	84		COc1cc(N=S(C)(=O)c2cccnc2)cc2ncnc(Nc3ccc(F)cc3O[C@H]3COC[C@@H]3O)c12 (stereo partly shown) [Example 9.14]	
8	97		COc1cc(N=S(C)(=O)C(C)(C)C)cc2ncnc(Nc3ccc(F)cc3O[C@H]3COC[C@@H]3O)c12 (stereo partly shown) [Example 9.18]	
4	97		COc1cc(N=S2(=O)CCC(C)C2)cc2ncnc(Nc3ccc(F)cc3O[C@H]3COC[C@@H]3O)c12 (stereo partly shown) [Example 9.24]	
3	94		COc1cc(N=S2(=O)CCCC2)cc2ncnc(Nc3ccc(F)cc3O[C@H]3COC[C@@H]3O)c12 [Example 9.29]	
54	44		CO[C@@H]1CN(C)C[C@H]1Oc1cc(F)ccc1Nc1ncnc2cc(N=S(C)(C)=O)cc(C)c12 [Example 11.1]	
31	75		CO[C@@H]1CN(C)C[C@H]1Oc1cc(F)ccc1Nc1ncnc2cc(N=S3(=O)CCCC3)cc(C)c12 [Example 11.2]	
12	87		CO[C@@H]1CN(C)C[C@H]1Oc1ncccc1Nc1ncnc2cc(N=S3(=O)CCCC3)cc(C)c12 [Example 11.3]	
59	56		CO[C@@H]1CN(C)C[C@H]1Oc1ncccc1Nc1ncnc2cc(N=S(C)(C)=O)cc(C)c12 [Example 11.4]	
15	79		Cc1cc(N=S2(=O)CCCC2)cc2ncnc(Nc3ccc(F)cc3O[C@@H]3COC[C@@H]3OCc3ccccc3)c12 [Example 13.3]	
1		80	CO[C@@H]1COC[C@@H]1Oc1cc(F)ccc1Nc1ncnc2cc(N=S(C)(C)=O)cc(C)c12 [Example 14.8]	
